PMC2990605 (British Journal of Cancer, 2010)
Entries after “also recorded” stand apart in the source; their conditions may differ.

Assay: Adverse events (CTCAEv3.0), worst grade per patient regardless of relation, and laboratory parameters
Format: in vivo
Method: Toxicity was evaluated according to common toxicity criteria for adverse events (CTCAEv3.0). The MTD was defined as the dose level(s) at which at least two out of six patients developed DLT.
Toxicity assessment, haematology and clinical biochemistry were performed at baseline and weekly during the study. Physical and ECOG performance status were recorded at baseline and before the next cycle.

## CC(C)C[C@@H](C(=O)N[C@H](C(=O)OC1CCCC1)c1ccccc1)[C@H](O)C(=O)NO [tosedostat]
human, in vivo, 21 days
  Dyspnoea, CTCAE grade 1, patients: 0
  Eosinophilic myocarditis, CTCAE grade 1, patients: 0
  Eosinophilic myocarditis, CTCAE grade 2, patients: 0
  Eosinophilic myocarditis, CTCAE grade 3, patients: 0
  Eosinophilic myocarditis, CTCAE grade 4, patients: 0
  Eosinophilic myocarditis, patients with events, %: 0%
  Erythema, CTCAE grade 1, patients: 0
  Erythema, CTCAE grade 2, patients: 0
  Erythema, CTCAE grade 3, patients: 0
  Erythema, CTCAE grade 4, patients: 0
  Erythema, patients with events, %: 0%
  Fatigue, CTCAE grade 1, patients: 7
  Fatigue, CTCAE grade 2, patients: 2
  Fatigue, CTCAE grade 3, patients: 1
  Fatigue, CTCAE grade 4, patients: 0
  Fatigue, patients with events, %: 45%
  Gastric dilatation, CTCAE grade 1, patients: 0
  Gastric dilatation, CTCAE grade 2, patients: 0
  Gastric dilatation, CTCAE grade 3, patients: 1
  Gastric dilatation, CTCAE grade 4, patients: 0
  Gastric dilatation, patients with events, %: 5%
  General physical health deterioration, CTCAE grade 1, patients: 0
  General physical health deterioration, CTCAE grade 2, patients: 0
  General physical health deterioration, CTCAE grade 3, patients: 0
  General physical health deterioration, CTCAE grade 4, patients: 0
  General physical health deterioration, patients with events, %: 0%
  Hypercalcaemia, CTCAE grade 1, patients: 0
  Hypercalcaemia, CTCAE grade 2, patients: 0
  Hypercalcaemia, CTCAE grade 3, patients: 0
  Hypercalcaemia, CTCAE grade 4, patients: 0
  Hypercalcaemia, patients with events, %: 0%
  Hyperglycaemia, CTCAE grade 1, patients: 0
  Hyperglycaemia, CTCAE grade 2, patients: 0
  Hyperglycaemia, CTCAE grade 3, patients: 2
  Hyperglycaemia, CTCAE grade 4, patients: 0
  Hyperglycaemia, patients with events, %: 9%
  Hyperhidrosis, CTCAE grade 1, patients: 1
  Hyperhidrosis, CTCAE grade 2, patients: 0
  Hyperhidrosis, CTCAE grade 3, patients: 0
  Hyperhidrosis, CTCAE grade 4, patients: 0
  Hyperhidrosis, patients with events, %: 5%
  Leukopenia, CTCAE grade 1, patients: 0
  Leukopenia, CTCAE grade 2, patients: 2
  Leukopenia, CTCAE grade 3, patients: 2
  Leukopenia, CTCAE grade 4, patients: 0
  Leukopenia, patients with events, %: 18%
  Malaise, CTCAE grade 2, patients: 0
  Malaise, CTCAE grade 3, patients: 1
  Malaise, CTCAE grade 4, patients: 0
  Malaise, patients with events, %: 5%
  Mucosal inflammation, CTCAE grade 1, patients: 2
  Mucosal inflammation, CTCAE grade 2, patients: 1
  Mucosal inflammation, CTCAE grade 3, patients: 0
  Mucosal inflammation, CTCAE grade 4, patients: 0
  Mucosal inflammation, patients with events, %: 14%
  Myalgia, CTCAE grade 1, patients: 7
  Myalgia, CTCAE grade 2, patients: 1
  Myalgia, CTCAE grade 3, patients: 1
  Myalgia, CTCAE grade 4, patients: 0
  Myalgia, patients with events, %: 41%
  Nasopharyngitis, CTCAE grade 1, patients: 2
  Nasopharyngitis, CTCAE grade 2, patients: 0
  Nasopharyngitis, CTCAE grade 3, patients: 0
  Nasopharyngitis, CTCAE grade 4, patients: 0
  Nasopharyngitis, patients with events, %: 9%
  Nausea, CTCAE grade 1, patients: 4
  Nausea, CTCAE grade 2, patients: 1
  Nausea, CTCAE grade 3, patients: 0
  Nausea, CTCAE grade 4, patients: 0
  Nausea, patients with events, %: 23%
  Neutropenia, CTCAE grade 1, patients: 0
  Neutropenia, CTCAE grade 2, patients: 1
  Neutropenia, CTCAE grade 3, patients: 2
  Neutropenia, CTCAE grade 4, patients: 3
  Neutropenia, patients with events, %: 27%
  Oedema peripheral, CTCAE grade 1, patients: 4
  Oedema peripheral, CTCAE grade 2, patients: 1
  Oedema peripheral, CTCAE grade 3, patients: 0
  Oedema peripheral, CTCAE grade 4, patients: 0
  Oedema peripheral, patients with events, %: 23%
  Oedema, CTCAE grade 1, patients: 3
  Oedema, CTCAE grade 2, patients: 0
  Oedema, CTCAE grade 3, patients: 0
  Oedema, CTCAE grade 4, patients: 0
  Oedema, patients with events, %: 14%
  Peripheral sensory neuropathy, CTCAE grade 1, patients: 4
  Peripheral sensory neuropathy, CTCAE grade 2, patients: 3
  Peripheral sensory neuropathy, CTCAE grade 3, patients: 0
  Peripheral sensory neuropathy, CTCAE grade 4, patients: 0
  Peripheral sensory neuropathy, patients with events, %: 32%
  Pollakiuria, CTCAE grade 1, patients: 0
  Pollakiuria, CTCAE grade 2, patients: 0
  Pollakiuria, CTCAE grade 3, patients: 0
  Pollakiuria, CTCAE grade 4, patients: 0
  Pollakiuria, patients with events, %: 0%
  Pruritus, CTCAE grade 1, patients: 3
  Pruritus, CTCAE grade 2, patients: 0
  Pruritus, CTCAE grade 3, patients: 1
  Pruritus, CTCAE grade 4, patients: 0
  Pruritus, patients with events, %: 18%
  Pyrexia, CTCAE grade 1, patients: 1
  Pyrexia, CTCAE grade 2, patients: 1
  Pyrexia, CTCAE grade 3, patients: 0
  Pyrexia, CTCAE grade 4, patients: 0
  Pyrexia, patients with events, %: 9%
  Rash, CTCAE grade 1, patients: 3
  Rash, CTCAE grade 2, patients: 1
  Rash, CTCAE grade 3, patients: 1
  Rash, CTCAE grade 4, patients: 0
  Rash, patients with events, %: 23%
  Spinal cord compression, CTCAE grade 1, patients: 0
  Spinal cord compression, CTCAE grade 2, patients: 0
  Spinal cord compression, CTCAE grade 3, patients: 0
  Spinal cord compression, CTCAE grade 4, patients: 0
  Spinal cord compression, patients with events, %: 0%
  Tumour pain, CTCAE grade 1, patients: 0
  Tumour pain, CTCAE grade 2, patients: 0
  Tumour pain, CTCAE grade 3, patients: 1
  Tumour pain, CTCAE grade 4, patients: 0
  Tumour pain, patients with events, %: 5%
  Urinary tract infection, CTCAE grade 1, patients: 0
  Urinary tract infection, CTCAE grade 2, patients: 0
  Urinary tract infection, CTCAE grade 3, patients: 1
  Urinary tract infection, CTCAE grade 4, patients: 0
  Urinary tract infection, patients with events, %: 5%
  Vomiting, CTCAE grade 1, patients: 3
  Vomiting, CTCAE grade 2, patients: 1
  Vomiting, CTCAE grade 3, patients: 0
  Vomiting, CTCAE grade 4, patients: 0
  Vomiting, patients with events, %: 18%
  γ-glutamyltransferase increased, CTCAE grade 1, patients: 0
  γ-glutamyltransferase increased, CTCAE grade 2, patients: 0
  γ-glutamyltransferase increased, CTCAE grade 3, patients: 1
  γ-glutamyltransferase increased, CTCAE grade 4, patients: 0
  γ-glutamyltransferase increased, patients with events, %: 5%
One patient, cohort 5, 6 days after third paclitaxel infusion, 2 days after last tosedostat dose
  death on study, cause: eosinophilic myocarditis, possibly related to study medication; also recorded: eosinophilic myocarditis, considered possibly related to paclitaxel, tosedostat or other medications
